From patent US9790219B2, “Compounds, compositions, and methods for increasing CFTR activity” (Proteostasis Therapeutics, Inc., priority 2014, dated 2017)

Tests used:
ΔF508-CFTR [1] = target: T1, ΔF508-CFTR (Homo sapiens, UniProt P13569, DEL508-508); assay: hBE equivalent current (Ieq) assay; format: cell-based; conditions: compound at 10 uM together with VX-809 at 1 uM, relative to VX-809 (1 uM); AUC of equivalent chloride current; primary hBE homozygous ΔF508; 24 h treatment
T1 construct: Primary lung epithelial cells homozygous for the Cystic Fibrosis-causing ΔF508 mutation; endogenous in cells; host or cells: primary human lung (bronchial) epithelial cells homozygous for ΔF508, differentiated at air-liquid interface
Method: Primary lung epithelial cells homozygous for the Cystic Fibrosis-causing ΔF508 mutation were differentiated for a minimum of 4 weeks in an air-liquid interface on Costar 24 well HTS filter plates prior to the equivalent current (Ieq) measurements. Cells were apically mucus-washed for 30 minutes 24 h prior to treatment with compounds. The basolateral media was removed and replaced with media containing the compound of interest diluted to its final concentration from DMSO stocks. Treated cells were incubated at 37° C. and 5% CO2 for 24 hours. At the end of the treatment period, the media was changed to the Ieq experimental solution for 30 minutes before the experiment and plates are maintained in a CO2-free incubator during this period. The plates containing the cells were then placed in pre-warmed heating blocks at 36° C.±0.5 for 15 minutes before measurements are taken. The transepithelial voltage (VT) and conductance (GT) were measured using a custom 24 channel current clamp (TECC-24) with 24 well electrode manifold. The Ieq assay measurements were made following additions with standardized time periods: • 1. The baseline VT and GT values were measured for approximately 20 minutes. • 2. Benzamil was added to block ENaC for 15 minutes. • 3. Forskolin plus VX-770 were added to maximally activate ΔF508-CFTR for 27 minutes. • 4. Bumetanide was added to inhibit the NaK2Cl cotransporter and shut-off secretion of chloride.
The activity data captured was the area under the curve (AUC) for the traces of the equivalent chloride current. The AUC was collected from the time of the forskolin/VX-770 addition until the inhibition by bumetanide addition. Correction in response to compound treatment was scored as the increase in the AUC for compound-treated samples over that of vehicle-treated samples. The results are shown below in Table 2 (++indicates activity ≧25% run at 10 uM of VX-809 at 1 uM; +indicates activity 10 to <25% run at 10 uM of VX-809 at 1 uM; ** indicates activity ≧200% of VX-809 (1 uM) with compound at 10 uM and VX-809 at 1 uM; * indicates activity 100-200% of VX-809 (1 uM) with compound at 10 uM and VX-809 at 1 uM)

ΔF508-CFTR [2] = target: T1, ΔF508-CFTR; assay: Ussing measurements; format: cell-based; conditions: compound at 10 uM together with VX-809 at 1 uM, relative to VX-809 (1 uM); CFTRinh-172 inhibitable short-circuit current; primary hBE homozygous ΔF508; 24 h treatment
Method: As discussed above, Ussing measurements can be used to measure CFTR activity. In this method, primary lung epithelial cells (hBEs) homozygous for the Cystic Fibrosis-causing ΔF508 mutation are differentiated for a minimum of 4 weeks in an air-liquid interface on SnapWell filter plates prior to the Ussing measurements. Cells are apically mucus-washed for 30 minutes prior to treatment with compounds. The basolateral media is removed and replaced with media containing the compound of interest diluted to its final concentration from DMSO stocks. Treated cells are incubated at 37° C. and 5% CO2 for 24 hours. At the end of the treatment period, the cells on filters are transferred to the Ussing chamber and equilibrated for 30 minutes. The short-circuit current is measured in voltage clamp-mode (Vhold=0 mV), and the entire assay is conducted at a temperature of 36° C.-36.5° C. Once the voltages stabilized, the chambers are clamped, and data is recorded by pulse readings every 5 seconds. Following baseline current stabilization, the following additions can be applied and the changes in current and resistance of the cells can be monitored: • 1. Benzamil to the apical chamber to inhibit ENaC sodium channel. • 2. Forskolin to both chambers to activate ΔF508-CFTR by phosphorylation. • 3. Genistein to both chambers to potentiate ΔF508-CFTR channel opening. • 4. CFTRinh-172 to the apical chamber to inhibit ΔF508-CFTR Cl-conductance.
The inhibitable current (that current that is blocked by CFTRinh-172) is measured as the specific activity of the ΔF508-CFTR channel, and increases in response to compound in this activity over that observed in vehicle-treated samples are identified as the correction of ΔF508-CFTR function imparted by the compound tested.

T1 sequence (P13569 with tags, fused parts or gaps DEL508-508): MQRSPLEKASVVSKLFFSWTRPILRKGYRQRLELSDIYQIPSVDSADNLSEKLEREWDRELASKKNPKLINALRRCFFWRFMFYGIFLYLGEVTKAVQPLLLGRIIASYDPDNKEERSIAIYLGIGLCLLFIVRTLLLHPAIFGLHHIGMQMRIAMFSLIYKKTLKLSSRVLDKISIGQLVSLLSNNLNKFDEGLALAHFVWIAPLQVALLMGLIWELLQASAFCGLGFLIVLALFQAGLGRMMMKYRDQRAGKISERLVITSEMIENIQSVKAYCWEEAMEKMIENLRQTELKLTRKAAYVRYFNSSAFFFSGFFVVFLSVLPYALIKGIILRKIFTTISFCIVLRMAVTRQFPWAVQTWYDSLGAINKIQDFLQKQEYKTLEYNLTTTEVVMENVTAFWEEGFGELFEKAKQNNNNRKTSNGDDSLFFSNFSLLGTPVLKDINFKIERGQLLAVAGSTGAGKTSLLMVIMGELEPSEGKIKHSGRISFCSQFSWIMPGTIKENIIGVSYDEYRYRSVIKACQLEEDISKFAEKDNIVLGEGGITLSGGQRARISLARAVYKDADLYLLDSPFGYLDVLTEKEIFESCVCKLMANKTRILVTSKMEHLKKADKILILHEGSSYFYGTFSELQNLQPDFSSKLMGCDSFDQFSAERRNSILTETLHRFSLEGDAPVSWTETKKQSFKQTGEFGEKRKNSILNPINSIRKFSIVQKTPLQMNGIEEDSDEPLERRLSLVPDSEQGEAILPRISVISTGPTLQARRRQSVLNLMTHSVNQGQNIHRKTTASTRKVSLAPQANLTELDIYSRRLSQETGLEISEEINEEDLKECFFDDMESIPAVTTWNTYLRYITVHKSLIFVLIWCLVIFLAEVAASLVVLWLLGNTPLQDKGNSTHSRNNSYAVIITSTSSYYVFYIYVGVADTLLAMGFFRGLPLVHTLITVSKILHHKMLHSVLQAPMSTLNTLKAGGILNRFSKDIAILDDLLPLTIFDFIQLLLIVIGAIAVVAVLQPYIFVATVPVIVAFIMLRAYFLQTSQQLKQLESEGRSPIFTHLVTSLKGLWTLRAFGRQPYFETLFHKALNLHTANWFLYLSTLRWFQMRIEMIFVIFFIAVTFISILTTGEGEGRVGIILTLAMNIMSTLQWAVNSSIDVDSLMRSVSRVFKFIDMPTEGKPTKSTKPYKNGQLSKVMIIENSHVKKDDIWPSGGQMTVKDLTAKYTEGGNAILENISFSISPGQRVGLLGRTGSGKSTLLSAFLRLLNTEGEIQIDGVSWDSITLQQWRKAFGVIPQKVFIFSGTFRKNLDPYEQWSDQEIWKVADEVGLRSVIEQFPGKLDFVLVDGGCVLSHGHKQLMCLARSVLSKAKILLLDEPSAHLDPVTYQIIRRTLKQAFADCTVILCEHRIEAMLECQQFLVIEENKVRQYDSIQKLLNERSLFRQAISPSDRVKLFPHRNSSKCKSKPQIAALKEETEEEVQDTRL

| Compound | Ieq Activity (ΔF508-CFTR [1]) | Ussing (ΔF508-CFTR [2]) |
| --- | --- | --- |
| O=C(NCCc1nnc(CO)s1)c1noc(-c2ccccc2)c1F [Compound A11, 4-fluoro-N-(2-(5-(hydroxymethyl)-1,3,4-thiadiazol-2-yl)ethyl)-5-phenylisoxazole-3-carboxamide] | * (* indicates activity 100-200% of VX-809 (1 uM) with compound at 10 uM and VX-809 at 1 uM) | – |
| COCc1nnc(CCNC(=O)c2cc(-c3ccccc3)on2)s1 [Compound A4, N-(2-(5-(methoxymethyl)-1,3,4-thiadiazol-2-yl)ethyl)-5-phenylisoxazole-3-carboxamide] | ** (** indicates activity ≧200% of VX-809 (1 uM) with compound at 10 uM and VX-809 at 1 uM) | – |
| O=C(NCCc1nnc(CBr)s1)c1cc(-c2ccccc2)on1 [Compound A3, N-(2-(5-(bromomethyl)-1,3,4-thiadiazol-2-yl)ethyl)-5-phenylisoxazole-3-carboxamide] | ** (** indicates activity ≧200% of VX-809 (1 uM) with compound at 10 uM and VX-809 at 1 uM) | – |
| O=C(NCCc1nnc(COC(F)(F)F)s1)c1cc(-c2ccccc2)on1 [Compound A16, 5-phenyl-N-(2-(5-((trifluoromethoxy)methyl)-1,3,4-thiadiazol-2-yl)ethyl)isoxazole-3-carboxamide] | * (* indicates activity 100-200% of VX-809 (1 uM) with compound at 10 uM and VX-809 at 1 uM) | – |
| C[C@H](O)c1nnc(CCNC(=O)c2cc(-c3ccccc3)on2)s1 [Compound A17, (S)-N-(2-(5-(1-hydroxyethyl)-1,3,4-thiadiazol-2-yl)ethyl)-5-phenylisoxazole-3-carboxamide] | ** (** indicates activity ≧200% of VX-809 (1 uM) with compound at 10 uM and VX-809 at 1 uM) | ** (** indicates activity ≧200% of VX-809 (1 uM) with compound at 10 uM and VX-809 at 1 uM) |
| CC(C)(O)c1nnc(CCNC(=O)c2cc(-c3ccccc3)on2)o1 [Compound A10, N-(2-(5-(2-hydroxypropan-2-yl)-1,3,4-oxadiazol-2-yl)ethyl)-5-phenylisoxazole-3-carboxamide] | ** (** indicates activity ≧200% of VX-809 (1 uM) with compound at 10 uM and VX-809 at 1 uM) | – |
| O=C(NCCc1nnc(COC(F)(F)F)o1)c1cc(-c2ccccc2)on1 [Compound A15, 5-phenyl-N-(2-(5-((trifluoromethoxy)methyl)-1,3,4-oxadiazol-2-yl)ethyl)isoxazole-3-carboxamide] | * (* indicates activity 100-200% of VX-809 (1 uM) with compound at 10 uM and VX-809 at 1 uM) | – |
| C[C@@H](O)c1nnc(CCNC(=O)c2cc(-c3ccccc3)on2)s1 [Compound A13, (R)-N-(2-(5-(1-hydroxyethyl)-1,3,4-thiadiazol-2-yl)ethyl)-5-phenylisoxazole-3-carboxamide] | ** (** indicates activity ≧200% of VX-809 (1 uM) with compound at 10 uM and VX-809 at 1 uM) | – |
| [N-]=[N+]=NCc1nnc(CCNC(=O)c2cc(-c3ccccc3)on2)s1 [Compound A7, N-(2-(5-(azidomethyl)-1,3,4-thiadiazol-2-yl)ethyl)-5-phenylisoxazole-3-carboxamide] | ** (** indicates activity ≧200% of VX-809 (1 uM) with compound at 10 uM and VX-809 at 1 uM) | – |
| CC(C)(O)c1nnc(CCNC(=O)c2cc(-c3ccccc3)on2)s1 [Compound A9, N-(2-(5-(2-hydroxypropan-2-yl)-1,3,4-thiadiazol-2-yl)ethyl)-5-phenylisoxazole-3-carboxamide] | ** (** indicates activity ≧200% of VX-809 (1 uM) with compound at 10 uM and VX-809 at 1 uM) | – |
| CO[C@H](C)c1nnc(CCNC(=O)c2cc(-c3ccccc3)on2)s1 [Compound A25-b, (R)-N-(2-(5-(1-methoxyethyl)-1,3,4-thiadiazol-2-yl)ethyl)-5-phenylisoxazole-3-carboxamide] | ** (** indicates activity ≧200% of VX-809 (1 uM) with compound at 10 uM and VX-809 at 1 uM) | – |
| COC(C)c1nnc(CCNC(=O)c2cc(-c3ccccc3)on2)o1 (stereo in doubt) [Compound A24-b, (S)-N-(2-(5-(1-methoxyethyl)-1,3,4-oxadiazol-2-yl)ethyl)-5-phenylisoxazole-3-carboxamide] | * (* indicates activity 100-200% of VX-809 (1 uM) with compound at 10 uM and VX-809 at 1 uM) | – |
| Cc1nnc(CCCNC(=O)c2cc(-c3ccccc3)on2)s1 [Compound A6, N-(3-(5-methyl-1,3,4-thiadiazol-2-yl)propyl)-5-phenylisoxazole-3-carboxamide] | ** (** indicates activity ≧200% of VX-809 (1 uM) with compound at 10 uM and VX-809 at 1 uM) | – |
| COCc1nnc(CCNC(=O)c2cc(-c3ccccc3)on2)o1 [Compound A5, N-(2-(5-(methoxymethyl)-1,3,4-oxadiazol-2-yl)ethyl)-5-phenylisoxazole-3-carboxamide] | ** (** indicates activity ≧200% of VX-809 (1 uM) with compound at 10 uM and VX-809 at 1 uM) | – |
| O=C(NCCc1nnc(C(O)C(F)(F)F)s1)c1cc(-c2ccccc2)on1 (stereo not drawn) [Compound A23, 5-phenyl-N-(2-(5-(2,2,2-trifluoro-1-hydroxyethyl)-1,3,4-thiadiazol-2-yl)ethyl)isoxazole-3-carboxamide] | ** (** indicates activity ≧200% of VX-809 (1 uM) with compound at 10 uM and VX-809 at 1 uM) | – |
| COC(C)c1nnc(CCNC(=O)c2cc(-c3ccccc3)on2)o1 (stereo in doubt) [Compound A24-a, (R)-N-(2-(5-(1-methoxyethyl)-1,3,4-oxadiazol-2-yl)ethyl)-5-phenylisoxazole-3-carboxamide] | * (* indicates activity 100-200% of VX-809 (1 uM) with compound at 10 uM and VX-809 at 1 uM) | – |
| C[C@@H](O)c1nnc(CCNC(=O)c2cc(-c3ccccc3)on2)o1 [Compound A14, (R)-N-(2-(5-(1-hydroxyethyl)-1,3,4-oxadiazol-2-yl)ethyl)-5-phenylisoxazole-3-carboxamide] | * (* indicates activity 100-200% of VX-809 (1 uM) with compound at 10 uM and VX-809 at 1 uM) | – |
| O=C(NCCc1nnc(CO)s1)c1noc(-c2ccc(F)cc2)c1F [Compound A12, 4-fluoro-5-(4-fluorophenyl)-N-(2-(5-(hydroxymethyl)-1,3,4-thiadiazol-2-yl)ethyl)isoxazole-3-carboxamide] | * (* indicates activity 100-200% of VX-809 (1 uM) with compound at 10 uM and VX-809 at 1 uM) | – |
| CC(C)c1nnc(CCNC(=O)c2cc(-c3ccccc3)on2)o1 [Compound A8, N-(2-(5-isopropyl-1,3,4-oxadiazol-2-yl)ethyl)-5-phenylisoxazole-3-carboxamide] | ** (** indicates activity ≧200% of VX-809 (1 uM) with compound at 10 uM and VX-809 at 1 uM) | – |
| CO[C@@H](C)c1nnc(CCNC(=O)c2cc(-c3ccccc3)on2)s1 [Compound A25-a, (S)-N-(2-(5-(1-methoxyethyl)-1,3,4-thiadiazol-2-yl)ethyl)-5-phenylisoxazole-3-carboxamide] | ** (** indicates activity ≧200% of VX-809 (1 uM) with compound at 10 uM and VX-809 at 1 uM) | – |
